# Experimental data taken from article PMC5638823, “Structural insights into the competitive inhibition of the ATP-gated P2X receptor channel” (Nature Communications, 2017).
# Target: T1, chicken P2X7 receptor (ckP2X7 WT) (Gallus gallus, UniProt A0A8V1A1T0)
# T1 construct: gene P2RX7; ckP2X7 WT (NCBI XP_001235163), expressed in HEK-293 cells
# Type: cell-based
# T1 sequence (A0A8V1A1T0 entry or part of it): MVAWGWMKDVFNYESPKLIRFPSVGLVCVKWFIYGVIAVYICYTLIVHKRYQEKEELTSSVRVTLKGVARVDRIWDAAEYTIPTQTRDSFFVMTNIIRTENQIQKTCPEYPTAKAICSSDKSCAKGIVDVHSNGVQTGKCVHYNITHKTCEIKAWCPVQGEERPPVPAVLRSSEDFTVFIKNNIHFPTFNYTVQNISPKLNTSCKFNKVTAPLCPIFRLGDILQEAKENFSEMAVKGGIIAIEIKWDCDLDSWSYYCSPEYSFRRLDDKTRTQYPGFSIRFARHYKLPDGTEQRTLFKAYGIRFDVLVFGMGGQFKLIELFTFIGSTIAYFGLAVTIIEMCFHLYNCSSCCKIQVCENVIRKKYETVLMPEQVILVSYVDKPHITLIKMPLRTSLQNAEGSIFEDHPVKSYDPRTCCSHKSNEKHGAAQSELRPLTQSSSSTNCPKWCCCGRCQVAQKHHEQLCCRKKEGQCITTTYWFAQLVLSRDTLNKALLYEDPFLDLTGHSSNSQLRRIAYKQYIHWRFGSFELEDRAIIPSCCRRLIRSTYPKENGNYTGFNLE
smiles,measurement,value
Nc1ncnc2c1ncn2[C@@H]1O[C@H](COP(=O)(O)OP(=O)(O)OP(=O)(O)O)[C@@H](O)[C@H]1O [ATP],"whole-cell patch clamp, ATP-evoked currents in transfected HEK-293 cells",ATP activated biphasic currents and TNP-ATP blocked ATP-dependent currents
